Measurements reported in patent publication US11141394B2, “Carbon dioxide external preparation” (priority 2017, dated 2021).

Columns and labels:
[1] = system: pain of de Quervain syndrome; test: Pain relief test (de Quervain syndrome); format: in vivo, human; settings: person one; oral, earlier treatment
Procedure: This test was conducted by a physical therapist. subject one was a person who has been suffering from de Quervain syndrome. Oral anti-inflammatory loxoprofen sodium had shown no effect on the pain of de Quervain syndrome. They had been suffering from sharp pain in the short rollical extensor muscle and the […] of the radial aspect of the hand joint. […] Therefore, pain relief effect of a carbon dioxide external preparation of the present invention was obvious.

[2] = system: pain and knee stiffness of rheumatism; test: Pain and knee stiffness of rheumatism improvement test; format: in vivo, human; settings: person two; oral, earlier treatment
From the text: Therefore, pain and knee stiffness of rheumatism improvement effect of a carbon dioxide external preparation of the present invention was obvious.

Compound: CC(C(=O)O)c1ccc(CC2CCCC2=O)cc1 (centres unmarked) [loxoprofen sodium]
- effect on the pain of de Quervain syndrome [1]: no effect
- pain and knee stiffness of rheumatism [2]: had not been improved
